Measured values reported in US9637496B2, “Substituted 7-azabicycles and their use as orexin receptor modulators” (priority 2013, dated 2017).
Read-outs that look alike come from different tables or passages of the source.

Assays:
rat orexin 1 receptor = rat orexin 1 receptor (Rattus norvegicus (Rat), UniProt P56718); experiment: Rat orexin 1 receptor radioligand binding (competitive binding, HEK293 membranes)
human orexin 1 receptor = human orexin 1 receptor (Homo sapiens (Human), UniProt O43613); experiment: Human orexin 1 receptor radioligand binding (competitive binding, CHO membranes)
human orexin 2 receptor = human orexin 2 receptor (Homo sapiens (Human), UniProt O43614); experiment: Human orexin 2 receptor radioligand binding ([3H]-EMPA competition, HEK293 membranes)
[1] = human orexin 2 receptor, Table 2, averages from between 2-20 runs, read-out: hOX2 Ki
[2] = Table 2, further testing, averages from 2-20 runs, read-out: rOX1 Ki
[3] = Table 2, further testing, averages from 2-20 runs, read-out: hOX1 Ki
[4] = Table 2, further testing, averages from 2-20 runs, read-out: hOX2 Ki
[5] = rat orexin 1 receptor, Table 2, averages from between 2-20 runs, read-out: rOX1 Ki
[6] = human orexin 1 receptor, Table 2, averages from between 2-20 runs, read-out: hOX1 Ki

rat orexin 1 receptor, sequence (P56718 whole entry): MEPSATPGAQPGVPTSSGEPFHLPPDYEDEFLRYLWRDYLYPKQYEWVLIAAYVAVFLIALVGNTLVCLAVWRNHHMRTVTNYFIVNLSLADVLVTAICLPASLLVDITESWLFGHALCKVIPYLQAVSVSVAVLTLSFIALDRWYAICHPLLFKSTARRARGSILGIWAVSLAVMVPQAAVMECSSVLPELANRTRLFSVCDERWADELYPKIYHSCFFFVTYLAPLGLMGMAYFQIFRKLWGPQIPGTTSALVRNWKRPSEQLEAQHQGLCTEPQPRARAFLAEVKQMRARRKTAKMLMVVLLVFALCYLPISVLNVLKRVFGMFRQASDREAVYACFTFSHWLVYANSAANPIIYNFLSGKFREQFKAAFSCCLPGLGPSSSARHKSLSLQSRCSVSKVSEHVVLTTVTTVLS
human orexin 1 receptor, sequence (O43613 whole entry): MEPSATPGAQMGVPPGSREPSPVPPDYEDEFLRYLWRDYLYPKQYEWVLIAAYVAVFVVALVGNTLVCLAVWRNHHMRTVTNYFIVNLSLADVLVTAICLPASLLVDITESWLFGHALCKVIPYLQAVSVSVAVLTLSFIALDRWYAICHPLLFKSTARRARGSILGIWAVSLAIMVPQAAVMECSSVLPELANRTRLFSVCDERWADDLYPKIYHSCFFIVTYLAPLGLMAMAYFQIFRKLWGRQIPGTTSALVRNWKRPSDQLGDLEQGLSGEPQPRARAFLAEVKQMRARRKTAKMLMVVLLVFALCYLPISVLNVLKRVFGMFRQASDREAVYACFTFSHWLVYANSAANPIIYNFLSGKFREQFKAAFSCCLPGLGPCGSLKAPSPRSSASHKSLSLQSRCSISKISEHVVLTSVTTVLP
human orexin 2 receptor, sequence (O43614 whole entry): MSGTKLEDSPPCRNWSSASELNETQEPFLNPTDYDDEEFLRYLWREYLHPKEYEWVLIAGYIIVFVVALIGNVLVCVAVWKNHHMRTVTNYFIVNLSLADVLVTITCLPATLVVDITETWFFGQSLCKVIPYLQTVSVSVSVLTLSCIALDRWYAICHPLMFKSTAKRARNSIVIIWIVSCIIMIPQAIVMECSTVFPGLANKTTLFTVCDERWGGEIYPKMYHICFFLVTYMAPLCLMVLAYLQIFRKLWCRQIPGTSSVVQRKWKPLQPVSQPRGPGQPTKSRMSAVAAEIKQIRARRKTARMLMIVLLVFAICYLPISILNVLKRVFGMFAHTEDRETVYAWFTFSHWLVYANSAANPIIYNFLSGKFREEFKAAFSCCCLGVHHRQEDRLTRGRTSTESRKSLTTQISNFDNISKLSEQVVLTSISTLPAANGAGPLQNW

## O=C(c1cccc(Cl)c1-c1ncccn1)N1[C@@H]2CC[C@H]1[C@H](Nc1ccc(C(F)(F)F)cn1)C2 [Example 376, (3-chloro-2-(pyrimidin-2-yl)phenyl)((1S,2R,4R)-2-((5-(trifluoromethyl)pyridin-2-yl)amino)-7-azabicyclo[2.2.1]heptan-7-yl)methanone]
Rat orexin 1 receptor; read-out: rOX1 Ki
  Ki: 10 nM
Human orexin 1 receptor; read-out: hOX1 Ki
  Ki: 4 nM
Human orexin 2 receptor; [1]
  Ki: 110 nM

## O=C(c1ccccc1-c1ncc(F)cn1)N1[C@@H]2CC[C@H]1[C@H](Nc1ncc(C(F)(F)F)cc1F)C2 [Example 460, ((1S,2R,4R)-2-((3-fluoro-5-(trifluoromethyl)pyridin-2-yl)amino)-7-azabicyclo[2.2.1]heptan-7-yl)(2-(5-fluoropyrimidin-2-yl)phenyl)methanone]
Rat orexin 1 receptor; [2]
  Ki: 57 nM
Human orexin 1 receptor; [3]
  Ki: 41 nM
Human orexin 2 receptor; [4]
  Ki: 1300 nM

## O=C(c1cccc(F)c1-c1ncc(F)cn1)N1[C@@H]2CC[C@H]1[C@H](Nc1ccc(C(F)(F)F)cn1)C2 [Example 375, (3-fluoro-2-(5-fluoropyrimidin-2-yl)phenyl)((1S,2R,4R)-2-((5-(trifluoromethyl)pyridin-2-yl)amino)-7-azabicyclo[2.2.1]heptan-7-yl)methanone]
Rat orexin 1 receptor; read-out: rOX1 Ki
  Ki: 49 nM
Human orexin 1 receptor; read-out: hOX1 Ki
  Ki: 89 nM
Human orexin 2 receptor; [1]
  Ki: 2200 nM

## Cc1cccc(C(=O)N2[C@@H]3CC[C@H]2[C@H](Nc2ccc(C(F)(F)F)cn2)C3)c1-c1ncccn1 [Example 299, (3-methyl-2-(pyrimidin-2-yl)phenyl)((1S,2R,4R)-2-((5-(trifluoromethyl)pyridin-2-yl)amino)-7-azabicyclo[2.2.1]heptan-7-yl)methanone]
Rat orexin 1 receptor; [5]
  Ki: 16 nM
Human orexin 1 receptor; [6]
  Ki: 7 nM
Human orexin 2 receptor; [1]
  Ki: 234 nM

## Cc1ccc(-c2ncccn2)c(C(=O)N2[C@@H]3CC[C@H]2[C@H](Nc2cnc(C(F)(F)F)cn2)C3)n1 [Example 403, (6-methyl-3-(pyrimidin-2-yl)pyridin-2-yl)((1S,2R,4R)-2-((5-(trifluoromethyl)pyrazin-2-yl)amino)-7-azabicyclo[2.2.1]heptan-7-yl)methanone]
Rat orexin 1 receptor; read-out: rOX1 Ki
  Ki: 88 nM
Human orexin 1 receptor; read-out: hOX1 Ki
  Ki: 67 nM
Human orexin 2 receptor; [1]
  Ki: 431 nM

## O=C(c1ncccc1-c1ncccn1)N1[C@@H]2CC[C@H]1[C@H](Nc1ncc(C(F)(F)F)cc1Cl)C2 [Example 387, ((1S,2R,4R)-2-((3-chloro-5-(trifluoromethyl)pyridin-2-yl)amino)-7-azabicyclo[2.2.1]heptan-7-yl)(3-(pyrimidin-2-yl)pyridin-2-yl)methanone]
Rat orexin 1 receptor; [5]
  Ki: 40 nM
Human orexin 1 receptor; [6]
  Ki: 33 nM
Human orexin 2 receptor; [1]
  Ki: 1100 nM

## O=C(c1ccccc1-c1ncccn1)N1[C@@H]2CC[C@H]1[C@H](Nc1cnc(C(F)(F)F)cn1)C2 [Example 400, (2-(pyrimidin-2-yl)phenyl)((1S,2R,4R)-2-((5-(trifluoromethyl)pyrazin-2-yl)amino)-7-azabicyclo[2.2.1]heptan-7-yl)methanone]
Rat orexin 1 receptor; read-out: rOX1 Ki
  Ki: 27 nM
Human orexin 1 receptor; read-out: hOX1 Ki
  Ki: 19 nM
Human orexin 2 receptor; [1]
  Ki: 571 nM

## O=C(c1cc(F)ccc1-n1nccn1)N1C2CCC1C(COc1ccc(F)cn1)C2 (racemic) [Example 30, (±)-(5-fluoro-2-(2H-1,2,3-triazol-2-yl)phenyl)(2-(((5-fluoropyridin-2-yl)oxy)methyl)-7-azabicyclo[2.2.1]heptan-7-yl)methanone]
Human orexin 1 receptor
  Ki: 60 nM
Human orexin 2 receptor; human orexin 2 receptor, Table 2, averages of 2-20 runs, read-out: hOX2 Ki
  Ki: 160 nM

## O=C(c1cccc(F)c1-c1ncccn1)N1[C@@H]2CC[C@H]1[C@H](Nc1ccc(C(F)(F)F)cn1)C2 [Example 279, (3-fluoro-2-(pyrimidin-2-yl)phenyl)((1S,2R,4R)-2-((5-(trifluoromethyl)pyridin-2-yl)amino)-7-azabicyclo[2.2.1]heptan-7-yl)methanone]
Rat orexin 1 receptor
  Ki: 18 nM
Human orexin 1 receptor
  Ki: 9 nM
Human orexin 2 receptor
  Ki: 990 nM

## O=C(c1ccc(F)cc1-c1ncccn1)N1[C@@H]2CC[C@H]1[C@H](Nc1ncc(C(F)(F)F)cn1)C2 [Example 414, (4-fluoro-2-(pyrimidin-2-yl)phenyl)((1S,2R,4R)-2-((5-(trifluoromethyl)pyrimidin-2-yl)amino)-7-azabicyclo[2.2.1]heptan-7-yl)methanone]
Rat orexin 1 receptor; [5]
  Ki: 160 nM
Human orexin 1 receptor; [6]
  Ki: 81 nM
Human orexin 2 receptor; [1]
  Ki: 5800 nM

## Cc1cccc(C(=O)N2[C@@H]3CC[C@H]2[C@H](Nc2ccc(Br)cn2)C3)c1-c1ncccn1 [Example 304, ((1S,2R,4R)-2-((5-bromopyridin-2-yl)amino)-7-azabicyclo[2.2.1]heptan-7-yl)(3-methyl-2-(pyrimidin-2-yl)phenyl)methanone]
Rat orexin 1 receptor; [5]
  Ki: 12 nM
Human orexin 1 receptor; [6]
  Ki: 16 nM
Human orexin 2 receptor; [1]
  Ki: 455 nM

## Cc1cnc(C(=O)N2[C@@H]3CC[C@H]2[C@H](Nc2ccc(C(F)(F)F)cn2)C3)c(-c2ncccn2)c1 [Example 380, (5-methyl-3-(pyrimidin-2-yl)pyridin-2-yl)((1S,2R,4R)-2-((5-(trifluoromethyl)pyridin-2-yl)amino)-7-azabicyclo[2.2.1]heptan-7-yl)methanone]
Rat orexin 1 receptor; read-out: rOX1 Ki
  Ki: 28 nM
Human orexin 1 receptor; read-out: hOX1 Ki
  Ki: 48 nM
Human orexin 2 receptor; [1]
  Ki: 8500 nM

## O=C(c1ccccc1-n1nccn1)N1[C@@H]2CC[C@H]1[C@H](Nc1ncc(C(F)(F)F)cc1F)C2 [Example 448, (2-(2H-1,2,3-triazol-2-yl)phenyl)((1S,2R,4R)-2-((3-fluoro-5-(trifluoromethyl)pyridin-2-yl)amino)-7-azabicyclo[2.2.1]heptan-7-yl)methanone]
Rat orexin 1 receptor; [2]
  Ki: 41 nM
Human orexin 1 receptor; [3]
  Ki: 33 nM
Human orexin 2 receptor; [4]
  Ki: 666 nM

## O=C(c1ccccc1-c1ncc(F)cn1)N1[C@@H]2CC[C@H]1[C@H](Nc1ncc(C(F)(F)F)cc1Cl)C2 [Example 385, ((1S,2R,4R)-2-((3-chloro-5-(trifluoromethyl)pyridin-2-yl)amino)-7-azabicyclo[2.2.1]heptan-7-yl)(2-(5-fluoropyrimidin-2-yl)phenyl)methanone]
Rat orexin 1 receptor; read-out: rOX1 Ki
  Ki: 37 nM
Human orexin 1 receptor; read-out: hOX1 Ki
  Ki: 44 nM
Human orexin 2 receptor; [1]
  Ki: 696 nM

## Cc1cccc(C(=O)N2[C@@H]3CC[C@H]2[C@H](Nc2ccc(C#N)cn2)C3)c1-c1ncccn1 [Example 393, 6-(((1S,2R,4R)-7-(3-methyl-2-(pyrimidin-2-yl)benzoyl)-7-azabicyclo[2.2.1]heptan-2-yl)amino)nicotinonitrile]
Rat orexin 1 receptor; [5]
  Ki: 500 nM
Human orexin 1 receptor; [6]
  Ki: 323 nM
Human orexin 2 receptor; [1]
  Ki: 8300 nM

## O=C(c1cccc(F)c1-n1nccn1)N1[C@@H]2CC[C@H]1[C@H](Nc1ncc(C(F)(F)F)cc1F)C2 [Example 449, (3-fluoro-2-(2H-1,2,3-triazol-2-yl)phenyl)((1S,2R,4R)-2-((3-fluoro-5-(trifluoromethyl)pyridin-2-yl)amino)-7-azabicyclo[2.2.1]heptan-7-yl)methanone]
Rat orexin 1 receptor; [2]
  Ki: 34 nM
Human orexin 1 receptor; [3]
  Ki: 41 nM
Human orexin 2 receptor; [4]
  Ki: 873 nM

## O=C(c1cccc(F)c1-c1ncccn1)N1[C@@H]2CC[C@H]1[C@H](Nc1cnc(Br)cn1)C2 [Example 309, ((1S,2R,4R)-2-((5-bromopyrazin-2-yl)amino)-7-azabicyclo[2.2.1]heptan-7-yl)(3-fluoro-2-(pyrimidin-2-yl)phenyl)methanone]
Rat orexin 1 receptor; read-out: rOX1 Ki
  Ki: 19 nM
Human orexin 1 receptor; read-out: hOX1 Ki
  Ki: 22 nM
Human orexin 2 receptor; [1]
  Ki: 1100 nM

## O=C(c1cccc(F)c1-n1nccn1)N1C2CCC1C(Oc1ccc(Br)cn1)C2 (racemic) [Example 440]
Rat orexin 1 receptor; [5]
  Ki: 118 nM
Human orexin 1 receptor; [6]
  Ki: 100 nM
Human orexin 2 receptor; [1]
  Ki: 6000 nM

## Cc1cccc(C(=O)N2[C@@H]3CC[C@H]2[C@H](Nc2ncc(C(F)(F)F)cc2F)C3)c1-n1nccn1 [Example 450, ((1S,2R,4R)-2-((3-fluoro-5-(trifluoromethyl)pyridin-2-yl)amino)-7-azabicyclo[2.2.1]heptan-7-yl)(3-methyl-2-(2H-1,2,3-triazol-2-yl)phenyl)methanone]
Rat orexin 1 receptor; [2]
  Ki: 14 nM
Human orexin 1 receptor; [3]
  Ki: 32 nM
Human orexin 2 receptor; [4]
  Ki: 340 nM

## Cc1noc(-c2cc(F)ccc2C(=O)N2[C@@H]3CC[C@H]2[C@H](Nc2cnc(C(F)(F)F)cn2)C3)n1 [Example 412, (4-fluoro-2-(3-methyl-1,2,4-oxadiazol-5-yl)phenyl)((1S,2R,4R)-2-((5-(trifluoromethyl)pyrazin-2-yl)amino)-7-azabicyclo[2.2.1]heptan-7-yl)methanone]
Rat orexin 1 receptor; [5]
  Ki: 126 nM
Human orexin 1 receptor; [6]
  Ki: 329 nM
Human orexin 2 receptor; [1]
  Ki: 4800 nM

## O=C(c1c(F)cccc1-c1ncco1)N1[C@@H]2CC[C@H]1[C@H](Nc1cnc(C(F)(F)F)cn1)C2 [Example 411, (2-fluoro-6-(oxazol-2-yl)phenyl)((1S,2R,4R)-2-((5-(trifluoromethyl)pyrazin-2-yl)amino)-7-azabicyclo[2.2.1]heptan-7-yl)methanone]
Rat orexin 1 receptor; read-out: rOX1 Ki
  Ki: 53 nM
Human orexin 1 receptor; read-out: hOX1 Ki
  Ki: 31 nM
Human orexin 2 receptor; [1]
  Ki: 622 nM

## O=C(c1ccccc1-c1ncc(F)cn1)N1[C@@H]2CC[C@H]1[C@H](Nc1cnc(C(F)(F)F)cn1)C2 [Example 397, (2-(5-fluoropyrimidin-2-yl)phenyl)((1S,2R,4R)-2-((5-(trifluoromethyl)pyrazin-2-yl)amino)-7-azabicyclo[2.2.1]heptan-7-yl)methanone]
Rat orexin 1 receptor; read-out: rOX1 Ki
  Ki: 50 nM
Human orexin 1 receptor; read-out: hOX1 Ki
  Ki: 24 nM
Human orexin 2 receptor; [1]
  Ki: 985 nM

## O=C(c1cccc(F)c1-c1ncccn1)N1[C@@H]2CC[C@H]1[C@H](Nc1ncc(Br)cn1)C2 [Example 315, ((1S,2R,4R)-2-((5-bromopyrimidin-2-yl)amino)-7-azabicyclo[2.2.1]heptan-7-yl)(3-fluoro-2-(pyrimidin-2-yl)phenyl)methanone]
Rat orexin 1 receptor; [5]
  Ki: 30 nM
Human orexin 1 receptor; [6]
  Ki: 52 nM
Human orexin 2 receptor; [1]
  Ki: 1850 nM

## Cc1cccc(C(=O)N2[C@@H]3CC[C@H]2[C@H](Nc2cnc(C(F)(F)F)cn2)C3)c1-c1ncc(F)cn1 [Example 399, (2-(5-fluoropyrimidin-2-yl)-3-methylphenyl)((1S,2R,4R)-2-((5-(trifluoromethyl)pyrazin-2-yl)amino)-7-azabicyclo[2.2.1]heptan-7-yl)methanone]
Rat orexin 1 receptor; read-out: rOX1 Ki
  Ki: 10 nM
Human orexin 1 receptor; read-out: hOX1 Ki
  Ki: 9 nM
Human orexin 2 receptor; [1]
  Ki: 300 nM

## O=C(c1cccc(F)c1-n1nccn1)N1C2CCC1C(COc1nccc(C(F)(F)F)n1)C2 (racemic) [Example 134, (±)-(3-fluoro-2-(2H-1,2,3-triazol-2-yl)phenyl)(2-(((4-(trifluoromethyl)pyrimidin-2-yl)oxy)methyl)-7-azabicyclo[2.2.1]heptan-7-yl)methanone]
Rat orexin 1 receptor
  Ki: 1500 nM
Human orexin 1 receptor
  Ki: 690 nM
